Measurements reported in PubChem BioAssay AID248 (DTP/NCI, 2004).
Inconclusive results and toxic doses are left out. No stated cut-off is given here; in the data, active means T/C of 150% or more; inactive means T/C below 125%.

Test system: L1210 leukemia ip in BDF1 mice, survival T/C
Experiment: NCI In Vivo Anticancer Drug Screen. Data for tumor model L1210 Leukemia (intraperitoneal) in B6D2F1 (BDF1) mice
Settings: endpoint: mean survival time, higher = longer survival
Method in brief: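 Antitumor effect is assessed in tumor-bearing animals. Survival in the compound arm is compared with a vehicle-dosed control arm and expressed as their quotient.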

[1] = dose: 100.0 mg/kg/injection, schedule: Q01DX009 (ip), vehicle: Klucel (hydroxypropylcellulose) (HPC)
[2] = dose: 100.0 mg/kg/injection, schedule: Q04DX003 (ip), vehicle: Klucel (hydroxypropylcellulose) (HPC)
[3] = dose: 200.0 mg/kg/injection, schedule: Q01DX009 (ip), vehicle: Klucel (hydroxypropylcellulose) (HPC)
[4] = dose: 200.0 mg/kg/injection, schedule: Q04DX003 (ip), vehicle: Klucel (hydroxypropylcellulose) (HPC)
[5] = dose: 400.0 mg/kg/injection, schedule: Q04DX003 (ip), vehicle: Klucel (hydroxypropylcellulose) (HPC)
[6] = dose: 100.0 mg/kg/injection, schedule: Q01DX009 (ip), vehicle: saline with Tween-80
[7] = dose: 100.0 mg/kg/injection, schedule: Q01DX001 (ip), vehicle: Klucel (hydroxypropylcellulose) (HPC)
[8] = dose: 200.0 mg/kg/injection, schedule: Q01DX001 (ip), vehicle: Klucel (hydroxypropylcellulose) (HPC)
[9] = dose: 400.0 mg/kg/injection, schedule: Q01DX001 (ip), vehicle: Klucel (hydroxypropylcellulose) (HPC)
[10] = dose: 50.0 mg/kg/injection, schedule: Q01DX009 (ip), vehicle: Klucel (hydroxypropylcellulose) (HPC)
[11] = dose: 50.0 mg/kg/injection, schedule: Q01DX001 (ip), vehicle: saline
[12] = dose: 100.0 mg/kg/injection, schedule: Q04DX003 (ip), vehicle: saline with Tween-80
[13] = dose: 200.0 mg/kg/injection, schedule: Q04DX003 (ip), vehicle: saline with Tween-80
[14] = dose: 400.0 mg/kg/injection, schedule: Q04DX003 (ip), vehicle: saline with Tween-80
[15] = dose: 100.0 mg/kg/injection, schedule: Q01DX001 (ip), vehicle: saline
[16] = dose: 200.0 mg/kg/injection, schedule: Q01DX001 (ip), vehicle: saline
[17] = dose: 400.0 mg/kg/injection, schedule: Q01DX001 (ip), vehicle: saline

Measured: T/C

NCCNCCNCCN1CC1
inactive: dose: 10.0 mg/kg/injection, schedule: Q04DX002 (ip), vehicle: saline 97 % of control | dose: 20.0 mg/kg/injection, schedule: Q04DX002 (ip), vehicle: saline 97 % of control

CCSc1nc2nccnc2c(=O)[nH]1
inactive: [1] 98 % of control | [2] 97 % of control | [3] 102 % of control | [4] 92 % of control | dose: 400.0 mg/kg/injection, schedule: Q01DX009 (ip), vehicle: Klucel (hydroxypropylcellulose) (HPC) 102 % of control | [5] 92 % of control

COc1nc(-c2ccccc2)cn[n+]1C
inactive: dose: 33.0 mg/kg/injection, schedule: Q01DX001 (ip), vehicle: saline with Tween-80 103 % of control | dose: 50.0 mg/kg/injection, schedule: Q01DX001 (ip), vehicle: saline with Tween-80 107 % of control | dose: 75.0 mg/kg/injection, schedule: Q01DX001 (ip), vehicle: saline with Tween-80 113 % of control

COCn1cnc([N+](=O)[O-])c1Br
inactive: dose: 100.0 mg/kg/injection, schedule: Q01DX001 (ip), vehicle: acetone 101 % of control | [6] 96 % of control | dose: 200.0 mg/kg/injection, schedule: Q01DX001 (ip), vehicle: acetone 90 % of control | dose: 200.0 mg/kg/injection, schedule: Q01DX009 (ip), vehicle: saline with Tween-80 93 % of control | dose: 400.0 mg/kg/injection, schedule: Q01DX001 (ip), vehicle: acetone 100 % of control | dose: 400.0 mg/kg/injection, schedule: Q01DX009 (ip), vehicle: saline with Tween-80 86 % of control

Nc1ccc(Cl)cc1C(=O)O
inactive: [7] 90 % of control | [8] 101 % of control | [9] 90 % of control

O=C(O)c1c(Cl)c(Cl)c(Cl)c(C(=O)O)c1Cl
inactive: [10] 98 % of control | [1] 97 % of control | [2] 93 % of control | [3] 98 % of control | [4] 91 % of control

CC[N+](C)(CC)CCCN(C)C(=O)C(c1ccccc1)c1ccccc1
inactive: dose: 12.5 mg/kg/injection, schedule: Q01DX001 (ip), vehicle: saline 92 % of control | dose: 12.5 mg/kg/injection, schedule: Q04DX003 (ip), vehicle: saline 98 % of control | dose: 25.0 mg/kg/injection, schedule: Q01DX001 (ip), vehicle: saline 103 % of control | dose: 25.0 mg/kg/injection, schedule: Q04DX003 (ip), vehicle: saline 93 % of control | [11] 92 % of control | dose: 50.0 mg/kg/injection, schedule: Q04DX003 (ip), vehicle: saline 93 % of control | dose: 75.0 mg/kg/injection, schedule: Q04DX003 (ip), vehicle: saline 97 % of control

CC(CC(C)(C)C)OS(=O)(=O)c1ccc(Br)cc1 (stereo not drawn)
inactive: [12] 98 % of control | [13] 101 % of control | [14] 92 % of control

Cc1cc(C)n(/N=C/c2ccc(/C=N/n3c(C)cc(C)c(C#N)c3=O)cc2)c(=O)c1C#N
inactive: [7] 91 % of control | [2] 92 % of control | [8] 87 % of control | [4] 87 % of control | [9] 94 % of control | [5] 90 % of control

C=CCOc1ccccc1C
inactive: [11] 98 % of control | [15] 95 % of control | [16] 97 % of control

CCCCCCCCCCCC[Si](Cl)(Cl)Cl
inactive: dose: 75.0 mg/kg/injection, schedule: Q01DX001 (ip), vehicle: saline 105 % of control

Cc1ccccc1-c1nc2cc(Cl)ccc2c(=O)o1
inactive: dose: 25.0 mg/kg/injection, schedule: Q01DX009 (ip), vehicle: saline with Tween-80 98 % of control | dose: 50.0 mg/kg/injection, schedule: Q01DX009 (ip), vehicle: saline with Tween-80 88 % of control | [6] 96 % of control | [12] 100 % of control | [13] 102 % of control | [14] 108 % of control

CC(C)=CC/C(C)=C/C=N\Nc1ccc([N+](=O)[O-])cc1[N+](=O)[O-]
inactive: [12] 98 % of control | [13] 95 % of control | [14] 93 % of control

CCOC(=O)C1=NN(c2ccccc2)C(=O)C1N=Nc1ccc(S(=O)(=O)Nc2nccc(C)n2)cc1 (stereo not drawn)
inactive: [15] 95 % of control | [16] 101 % of control | [17] 102 % of control

c1ccc(SC23CC4CC(CC(C4)C2)C3)nc1
inactive: dose: 100.0 mg/kg/injection, schedule: Q01DX003 (ip), vehicle: Klucel (hydroxypropylcellulose) (HPC) 100 % of control | [2] 94 % of control | dose: 200.0 mg/kg/injection, schedule: Q01DX003 (ip), vehicle: Klucel (hydroxypropylcellulose) (HPC) 89 % of control | [4] 91 % of control | dose: 400.0 mg/kg/injection, schedule: Q01DX003 (ip), vehicle: Klucel (hydroxypropylcellulose) (HPC) 94 % of control | [5] 102 % of control

CCCCC(Cl)(CCCC)C(C)Sc1ccc([N+](=O)[O-])cc1 (stereo not drawn)
inactive: dose: 100.0 mg/kg/injection, schedule: Q01DX001 (ip), vehicle: carboxymethylcellulose (CMC) 103 % of control | dose: 200.0 mg/kg/injection, schedule: Q01DX001 (ip), vehicle: carboxymethylcellulose (CMC) 94 % of control | dose: 400.0 mg/kg/injection, schedule: Q01DX001 (ip), vehicle: carboxymethylcellulose (CMC) 100 % of control

O=S(=O)(O)CCC(CO)(CO)CO
inactive: dose: 100.0 mg/kg/injection, schedule: Q01DX009 (ip), vehicle: saline 98 % of control | dose: 100.0 mg/kg/injection, schedule: Q04DX003 (ip), vehicle: saline 101 % of control | dose: 200.0 mg/kg/injection, schedule: Q01DX009 (ip), vehicle: saline 102 % of control | dose: 200.0 mg/kg/injection, schedule: Q04DX003 (ip), vehicle: saline 101 % of control | dose: 400.0 mg/kg/injection, schedule: Q01DX009 (ip), vehicle: saline 101 % of control | dose: 400.0 mg/kg/injection, schedule: Q04DX003 (ip), vehicle: saline 97 % of control

O=C1CN=C(c2ccccc2)c2cc(Cl)ccc2N1
inactive: dose: 25.0 mg/kg/injection, schedule: Q01DX009 (ip), vehicle: Klucel (hydroxypropylcellulose) (HPC) 92 % of control | [10] 94 % of control | [1] 89 % of control | dose: 100.0 mg/kg/injection, schedule: Q04DX002 (ip), vehicle: Klucel (hydroxypropylcellulose) (HPC) 106 % of control | [3] 98 % of control | dose: 200.0 mg/kg/injection, schedule: Q04DX002 (ip), vehicle: Klucel (hydroxypropylcellulose) (HPC) 93 % of control | dose: 400.0 mg/kg/injection, schedule: Q04DX002 (ip), vehicle: Klucel (hydroxypropylcellulose) (HPC) 89 % of control

O=C(O)/C=C/c1ccc(O)cc1
inactive: dose: 75.0 mg/kg/injection, schedule: Q04DX003 (ip), vehicle: Klucel (hydroxypropylcellulose) (HPC) 97 % of control | dose: 150.0 mg/kg/injection, schedule: Q04DX003 (ip), vehicle: Klucel (hydroxypropylcellulose) (HPC) 101 % of control | dose: 300.0 mg/kg/injection, schedule: Q04DX003 (ip), vehicle: Klucel (hydroxypropylcellulose) (HPC) 109 % of control

CCOC(=O)c1c[nH]c2c(c1=O)c(=O)n(C)c(=O)n2C
inactive: [7] 97 % of control | [8] 101 % of control | [9] 94 % of control

CCC(C)(N)C(=O)O (stereo not drawn)
inactive: [15] 102 % of control | [16] 106 % of control | [17] 102 % of control
